Data from US10259804B2, “Anti-endothelial lipase compounds and methods of using the same in the treatment and/or prevention of cardiovascular diseases” (Shifa Biomedical Corporation, priority 2014, dated 2019).

Assays:
Format in all cases: biochemical
[1] = molecular target: T1, human full-length EL (endothelial lipase) (Homo sapiens, UniProt Q9Y5X9); assay: EL inhibition assay using cell extracts of HEK293/EL transfected cells; settings: compound 0.001-200 μM, means of three experiments
T1 construct: We have cloned the human full-length EL, LPL, HL and PL; made in house; host or cells: HEK-293, transient transfection; cell extracts used
T1 sequence (Q9Y5X9 21-500): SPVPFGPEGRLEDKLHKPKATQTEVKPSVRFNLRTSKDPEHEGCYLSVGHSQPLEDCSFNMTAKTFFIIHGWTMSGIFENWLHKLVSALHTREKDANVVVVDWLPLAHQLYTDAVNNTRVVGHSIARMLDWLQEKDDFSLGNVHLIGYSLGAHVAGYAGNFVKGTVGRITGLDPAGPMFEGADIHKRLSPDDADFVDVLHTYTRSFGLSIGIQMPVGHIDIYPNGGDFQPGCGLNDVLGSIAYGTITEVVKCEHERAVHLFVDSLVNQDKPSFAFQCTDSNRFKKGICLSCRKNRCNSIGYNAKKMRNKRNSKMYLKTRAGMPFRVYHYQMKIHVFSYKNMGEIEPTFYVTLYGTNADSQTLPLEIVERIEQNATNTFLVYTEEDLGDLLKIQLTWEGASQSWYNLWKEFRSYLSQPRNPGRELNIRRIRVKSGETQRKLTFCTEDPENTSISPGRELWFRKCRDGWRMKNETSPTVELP
Description: (§1) Preparation of constructs: We have cloned the human full-length EL, LPL, HL and PL. The cDNA encoding the EL, LPL, HL and PL sequence was cloned by PCR and subcloned into a mammalian expression vector containing the cytomegalovirus promoter-enhancer. The constructs were confirmed by sequence analysis.
(§2) Expression of EL, LPL, HL and PL in mammalian cells: The above constructs were used to transfect HEK-293 cells. The cells were seeded into T75 plates in a DMEM solution containing 10% Fetal Bovine Serum media and incubated overnight at 37° C. Cells were transiently transfected with various cDNA constructs using the Lipofectamine-LTX as described by the manufacturer (Invitrogen). After transfection, cells were then incubated for an additional 48 hours at 37° C. before being analyzed for expression. After 48 hours of incubation, following transfection, cells were collected for analysis by western blots for the expression of EL, LPL, HL and PL.
EL screening assay: We developed and implemented two assays (a) in assay one the HDL-C functions as a substrate for the assay. This assay measures the rate of HDL hydrolysis by EL that yields free fatty acids, which are then coupled through acyl-CoA synthetase, acyl-CoA oxidase and horseradish peroxidase to produce the fluorescent species, resorufin; (b) in assay two PED-A1, a novel fluorogenic phospholipase A1-selective substrate was used for EL measurements. […] Assay one was used for initial screening, while assay two was used for secondary screening and EL kinetics.
Characterization of the Hits: A library of compounds that modified both the urea and sulfonamide substituents on the 5-methyl furan were synthesized. The library was extensively analyzed for EL potency, and then the data was utilized to further optimize the compounds. Seven compounds were selected for potency, kinetic and selectivity confirmation.
In order to determine the Ki value, we used variable concentrations of the compound and variable substrate concentrations.

[2] = molecular target: T2, human full-length LPL (lipoprotein lipase) (Homo sapiens, UniProt P06858); assay: LPL selectivity assay (phospholipase kit, resorufinoleate substrate); settings: even at 200 uM compound concentration
T2 construct: We have cloned the human full-length EL, LPL, HL and PL; made in house; host or cells: HEK-293, transient transfection
T2 sequence (P06858 28-475): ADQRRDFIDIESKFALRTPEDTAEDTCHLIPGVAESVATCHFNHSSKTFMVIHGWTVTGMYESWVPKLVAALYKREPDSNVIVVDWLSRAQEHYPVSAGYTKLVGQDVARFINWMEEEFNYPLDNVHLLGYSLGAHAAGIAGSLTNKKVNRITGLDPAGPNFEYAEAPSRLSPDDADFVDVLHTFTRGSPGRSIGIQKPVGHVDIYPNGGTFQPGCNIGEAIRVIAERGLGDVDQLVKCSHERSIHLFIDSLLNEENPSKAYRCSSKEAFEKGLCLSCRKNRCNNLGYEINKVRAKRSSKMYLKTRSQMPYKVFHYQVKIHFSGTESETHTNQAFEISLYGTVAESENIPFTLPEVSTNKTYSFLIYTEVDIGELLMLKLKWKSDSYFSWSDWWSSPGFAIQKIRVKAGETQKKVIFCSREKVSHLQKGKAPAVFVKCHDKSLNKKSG
Description: as §1, §2
(§3) LPL, PL and HL selectivity assays: For measuring LPL, PL and HL activity, we used the commercially available phospholipase kit (MGT). The activity of the substrate, resorufinoleate is quite good for both phospholipase A1 and phospholipase A2, and therefore is ideal for LPL, PL and HL. Since the substrate is quite general for other lipases such as triacylglycerol lipases or lipoprotein lipases, we utilized our recombinant system and cell specific expression system to achieve the desired specificity. The LPL, PL and HL enzyme activity measurements were conducted using a 96-well microtiter plate. All appropriate controls were implemented.
(§4) Experiments were also performed to determine the specificity of our best compounds against the most closely related homologues, LPL, PL and HL.

[3] = molecular target: T3, human full-length PL (pancreatic lipase) (Homo sapiens, UniProt P16233); assay: PL selectivity assay (phospholipase kit, resorufinoleate substrate); settings: even at 200 uM compound concentration
T3 construct: We have cloned the human full-length EL, LPL, HL and PL; made in house; host or cells: HEK-293, transient transfection
T3 sequence (P16233 17-465): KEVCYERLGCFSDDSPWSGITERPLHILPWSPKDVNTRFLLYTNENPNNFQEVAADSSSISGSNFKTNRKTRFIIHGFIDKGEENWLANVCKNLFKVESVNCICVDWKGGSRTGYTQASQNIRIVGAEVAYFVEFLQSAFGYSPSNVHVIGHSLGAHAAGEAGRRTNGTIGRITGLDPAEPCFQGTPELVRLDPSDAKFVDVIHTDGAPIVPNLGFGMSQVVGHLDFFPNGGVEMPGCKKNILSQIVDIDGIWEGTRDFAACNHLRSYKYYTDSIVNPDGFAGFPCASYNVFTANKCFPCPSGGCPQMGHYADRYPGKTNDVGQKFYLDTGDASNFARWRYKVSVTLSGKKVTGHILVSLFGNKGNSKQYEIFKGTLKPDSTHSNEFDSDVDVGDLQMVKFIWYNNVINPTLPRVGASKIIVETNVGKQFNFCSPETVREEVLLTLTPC
Description: as §1, §2, §3, §4

[4] = molecular target: T4, human full-length HL (hepatic lipase) (Homo sapiens, UniProt P11150); assay: HL selectivity assay (phospholipase kit, resorufinoleate substrate); settings: even at 200 uM compound concentration
T4 construct: We have cloned the human full-length EL, LPL, HL and PL; made in house; host or cells: HEK-293, transient transfection
T4 sequence (P11150 23-499): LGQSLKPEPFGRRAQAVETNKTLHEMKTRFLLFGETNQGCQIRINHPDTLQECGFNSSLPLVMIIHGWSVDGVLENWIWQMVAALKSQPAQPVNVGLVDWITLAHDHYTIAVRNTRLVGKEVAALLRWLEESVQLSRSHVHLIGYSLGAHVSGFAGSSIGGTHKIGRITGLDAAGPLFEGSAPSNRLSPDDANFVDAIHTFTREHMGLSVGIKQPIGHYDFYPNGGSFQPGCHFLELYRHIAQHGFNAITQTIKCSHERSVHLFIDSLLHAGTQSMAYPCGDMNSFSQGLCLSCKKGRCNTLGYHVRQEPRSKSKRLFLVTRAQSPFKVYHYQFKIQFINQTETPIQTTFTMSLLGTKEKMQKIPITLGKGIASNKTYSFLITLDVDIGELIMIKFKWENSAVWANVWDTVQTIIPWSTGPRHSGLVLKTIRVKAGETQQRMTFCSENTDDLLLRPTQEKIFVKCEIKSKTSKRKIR
Description: as §1, §2, §3, §4

| IC50 [1] [nM] | inhibition against LPL activity [2] | inhibition against PL activity [3] | inhibition against HL activity [4] | Compound |
| --- | --- | --- | --- | --- |
| 62 | no inhibition | no inhibition | no inhibition | Cc1ccccc1NC(=O)Nc1cc(S(=O)(=O)N2CCC(C(F)(F)F)CC2)oc1C [SBC-140,466] |
| 79 | no inhibition | no inhibition | no inhibition | Cc1oc(S(=O)(=O)N2CCC(C(F)(F)F)CC2)cc1NC(=O)NC(c1ccccc1)C(F)(F)F (stereo not drawn) [SBC-140,472] |
| 19 | no inhibition | no inhibition | no inhibition | COC1CCN(S(=O)(=O)c2cc(NC(=O)NCc3ccccc3C(F)(F)F)c(C)o2)CC1 [SBC-140,460] |
